Assay results reported in publication PMC8375385, “In vitro Effect of Harmine Alkaloid and Its N-Methyl Derivatives Against Toxoplasma gondii” (Frontiers in Microbiology, 2021).
Entries after “also recorded” stand apart in the source; their conditions may differ. Where two headings read alike, the source gives them in different places.

Assays:
T. gondii γH2A.X = assay: Western blot of γH2A.X in intracellular tachyzoites; assay type: cell-based, Toxoplasma gondii; details: 2 days; for γH2A.X levels: intracellular tachyzoites, CPT 10 μM or 3 7.5 μM alone
Procedure: Monolayers of hTERT cells grown in 12-well plates were infected with 5 × 10^6 tachyzoites of the RH Δhxgprt strain. After the invasion process, cells were washed with PBS and incubated with 3 (7.5 μM), CPT (10 μM), 3 (7.5 μM) plus CPT (10 μM), or the vehicle (DMSO), diluted in supplemented DMEM for 2 days. Then, infected cells were harvested by trypsinization, centrifuged, resuspended in PBS, and lysed by freeze–thaw cycling. Samples were resolved by SDS-PAGE (15%), and a western blot assay was conducted. Membranes were incubated (1 h, RT) with rabbit anti-T. gondii γH2A.X (1:500) ([Contreras et al., 2021]) and murine anti-SAG1 (Novus Biologicals, 1:500). Finally, they were washed several times with PBS-T and incubated with alkaline phosphatase-conjugated anti-rabbit or anti-mouse secondary antibodies, diluted to 1:4,000 (Santa Cruz Biotechnology). Immunoreactive protein bands were visualized by the NBT-BCIP (Promega) method. Densitometric analysis of scanned images was performed using the Image-Pro Plus software.

[1] = test system: T. gondii RH Δhxgprt tachyzoites; assay: Invasion assay, pretreated extracellular tachyzoites; assay type: cell-based, Toxoplasma gondii; details: extracellular tachyzoites preincubated 1 h, 0 up to ∼50 μM, Vero cells
Procedure: Extracellular tachyzoites of RH Δhxgprt strain (2 × 10^6) were preincubated for 1 h (at 37°C and 5% CO2) with different doses of the assayed compounds (up to 40–50 μM) or the vehicle (DMSO) diluted in supplemented DMEM. Parasites were, then, centrifuged, resuspended in supplemented DMEM, and were allowed to invade Vero cell monolayers grown on coverslips in 24-well plates by incubation for 10 min on ice followed by 1 h at 37°C. Invasion assay was performed as described elsewhere ([Yañuk et al., 2017]). To facilitate counting, cells were analyzed by indirect immunofluorescence assay (IFA). Immunostaining was performed using anti-SAG1 mouse monoclonal (Novus Biologicals, 1:50)/goat anti-mouse Alexa Fluor 488 (Invitrogen, 1:4,000) antibodies. Fifty random fields per sample, with a similar number of host cells, were analyzed under microscope (Zeiss Axio Observer Colibri 7, magnification × 63). The number of parasitophorous vacuoles per field (PV/field) was counted. Data are presented as means of PV/field ± SEM. Two independent experiments were performed in duplicates.

[2] = test system: T. gondii RH Δhxgprt tachyzoites; assay: Replication assay (tachyzoites per PV); assay type: cell-based, Toxoplasma gondii; details: for increase of % PV with one parasite (% PV (1P)) vs control: 1-h-pretreated extracellular tachyzoites, 5–50 μM, 1 day of incubation without drug; for % PV (1P): intracellular tachyzoites in Vero cells, 7.5 μM, 2 days of incubation
Procedure: The effect of βCs on the replication process was evaluated on both extracellular and intracellular treated tachyzoites of the strain RH Δhxgprt. In the first case, the procedure followed was described above (see invasion assay), but after allowing the invasion, samples were washed with PBS and incubated for 1 day with supplemented DMEM (without drugs), before fixing and staining. To investigate βCs’ action on intracellular parasites, confluent Vero cells grown in 24-well plates were infected with 2 × 10^6 tachyzoites per well and treated for 2 days with different concentrations of the investigated drugs or the vehicle (DMSO) as negative control. Finally, they were fixed and immunolabeled as detailed previously. The number of tachyzoites per PV was analyzed under a microscope with × 63 magnification. At least 100 PVs selected at random were scored in triplicates, per compound dose, in two independent sets of experiments. Results are depicted as the mean percentage of PVs (% PV) that contained a geometric progression 2^n (with “n” being a natural number ≥ 0) of tachyzoites per PV ± SEM.

[3] = test system: T. gondii RH Δhxgprt tachyzoites; assay: Tachyzoite cell cycle analysis by flow cytometry; assay type: cell-based, Toxoplasma gondii; details: infected hTERT fibroblasts, 2 days; 1–3 at 7.5 μM, SDZ at 500 μM
Procedure: Tachyzoites of the RH Δhxgprt strain (3 × 10^6) were added to hTERT cell monolayers grown into six-well plates. After invasion was allowed, the medium was changed, and infected cells were incubated for 2 days with 1, 2, and 3 (7.5 μM); SDZ (500 μM, positive control); or the vehicle (negative control), diluted in supplemented DMEM. Then, cells were detached using trypsin/EDTA solution and gently ruptured by successive passages through 27- and 30-gauge needles in order to obtain free parasites. Samples were centrifuged (2,000 rpm, 10 min), washed with PBS, fixed with 70% ethanol, and stored for 1 day at −20°C. Afterward, samples were processed and stained as described previously ([Munera Lopez et al., 2019]). At least 10,000 tachyzoites per sample were analyzed by flow cytometry measurements, carried out in a BD FACSCalibur equipment. Results were analyzed using FlowJo software 7.6. All assays were performed in duplicates, in two independent experiments.

[4] = test system: T. gondii RH RFP tachyzoites; assay: Lytic cycle growth assay (RFP fluorescence); assay type: cell-based, Toxoplasma gondii; details: for effect on tachyzoite growth: up to 10 μM, 3 d.p.i.; for IC50: Toxoplasma gondii, Fibroblast; for selectivity index (SI): CC50 hTERT 4 days / IC50 at 4 d.p.i.
ctDNA = details: pH 7.4, cited from earlier work
in vitro = details: African green monkey (Cercopithecus aethiops)
[5] = MTT cytotoxicity on hTERT fibroblasts, 4 days; assay type: cell-based, human; details: human, MTT, 4 days of incubation (Table 1 footnote b)
Procedure: (§1) The same assay was performed for hTERT fibroblasts, incubated for 4 days with different concentrations of 3. Absorbance was read at 540 nm (reference wavelength: 700 nm) in a plate reader (Synergy H1 Hybrid Reader, BioTek). Average absorbance from background wells (without cells, treated as the samples) was subtracted out, to obtain corrected values (A540 corr). The percentage of cell viability was calculated as follows:
(§2) Cellviability(%)=A540corrtreatedcells/A540corruntreatedcells×100
(§3) CC50 values were obtained by nonlinear regression analysis of cell viability (%) vs. log[compound] with a variable Hill’s slope, using the GraphPad Prism 5.03 software. Each concentration was assayed in triplicates, in three independent sets of experiments. To avoid effects of evaporation, outer wells were not used.

hTERT fibroblasts = assay: MTT cytotoxicity on hTERT fibroblasts, 4 days; assay type: cell-based, human; details: 10 μM, 4 days
Procedure: as §1, §2, §3

[6] = test system: T. gondii RH Δhxgprt tachyzoites; assay: Plaque reduction assay; assay type: cell-based, Toxoplasma gondii
Procedure: Monolayers of hTERT fibroblasts grown into 24-well plates were infected with 1 × 10^4 tachyzoites per well of the RH Δhxgprt strain. Then, they were washed with PBS and treated with different concentrations of 3 or the vehicle (DMSO) diluted in supplemented DMEM. After 6.5 days of incubation, monolayers were washed, fixed with ethanol (70% v/v), and stained with crystal violet (Sigma). The IC50 value was obtained by nonlinear regression analysis of the number of plaques vs log[3] (variable Hill’s slope). The area of the plaques was analyzed by ImageJ software.

[7] = test system: T. gondii RH RFP tachyzoites; assay: Time of removal assay; assay type: cell-based, Toxoplasma gondii; details: for growth recovery after drug removal: followed up to 15 d.p.i.
human topoisomerase II = test system: human topoisomerase II; design: method as in Cao et al., 2005; details: 600 μM; ref Cao et al., 2005; cited from earlier work
topoisomerase I = test system: topoisomerase I; design: method as in Cao et al., 2005; details: cell-free system, ref Cao et al., 2005, cited from earlier work
[8] = MTT cytotoxicity on Vero host cells, 2 days; details: African green monkey (Cercopithecus aethiops), CC50, Vero cells, 2 days of treatment (Table 1 footnote a)
Vero cells = assay: MTT cytotoxicity on Vero host cells, 2 days; details: Vero cells, 2 days of treatment (Table 1 footnote a)
host cells = test system: host cells; design: method as in not given; details: Table 1 footnote c, footnote text not given; ref not given; cited from earlier work
T. gondii RH strain = test system: T. gondii RH strain; design: method as in not given; details: footnote text not given, ref not given, cited from earlier work
[9] = test system: T. gondii RH Δhxgprt tachyzoites; design: method as in Alomar et al. (2013); details: extracellular tachyzoites preincubated 1 h, 0 up to ∼50 μM, Vero cells; ref Alomar et al. (2013); cited from earlier work
[10] = test system: T. gondii RH Δhxgprt tachyzoites; design: method as in Alomar et al. (2013); details: 1-h-pretreated extracellular tachyzoites, 25–40 μM, 1 day of incubation; ref Alomar et al. (2013); cited from earlier work
[11] = 72 h, RH RFP strain in hTERT fibroblasts, 3 d.p.i. (Table 1 footnote d), read-out: IC50 (converted)

SMILES | γH2A.X levels (T. gondii γH2A.X) | effect on invasion process (PV/field) [1] | increase of % PV with one parasite (% PV (1P)) vs control [2] | % PV (1P) [2] [%] | effect on tachyzoite cell cycle (DNA content, G1 vs S/M) [3] | effect on tachyzoite growth ([4]; RH RFP in hTERT fibroblasts) | IC50 [4, 11] [µM] | CC50 at 4 days [5] [µM] | selectivity index (SI) [4] | inhibition of human topoisomerase II (human topoisomerase II) | inhibition of topoisomerase I activity (topoisomerase I; 50 μM) | inhibition of topoisomerase I activity (topoisomerase I; 150 μM) | CC50 at 2 days ([8]; Vero cells (monolayers)) [µM] | CC50 (Vero cells) [µM] | IC50 (T. gondii RH strain; Table 1 footnote g) [µM] | also measured
CC[C@@]1(O)C(=O)OCc2c1cc1n(c2=O)Cc2cc3ccccc3nc2-1 [CPT, camptothecin, reference compound] | notable increase | – | – | – | – | – | – | – | – | – | – | – | – | – | – | –
COc1ccc2c(c1)[nH]c1c(C)[n+](C)ccc12 [Compound 2, 2-methyl-harminium] | – | negligible or rather low effect | around fourfold | 68 | arrest in S/M phases; also recorded: significant enrichment in tachyzoite DNA content compatible with S/M phases | no major impact | > 10 | – | – | – | – | – | – | – | – | overall binding constant to ctDNA (ctDNA; ref Denofrio et al., 2020): 5.9 ± 0.3 × 10^3 M^–1 in bp; CC50 at 2 days (in vitro): > 500 µM
COc1ccc2c3ccnc(C)c3n(C)c2c1 [Compound 3, 9-methyl-harmine] | decreased basal levels | negligible or rather low effect | fivefold | 78 | arrest in S/M phases; also recorded: significant enrichment in tachyzoite DNA content compatible with S/M phases | strong growth inhibition | 1.6 ± 0.2 | 31 | 17.2 | do not inhibit | strongly decreases | inhibited | ~60 | 59 ± 8 | – | impact on fibroblast metabolism (MTT) (hTERT fibroblasts): no impact; IC50 ([4]; 96 h, RH RFP strain in hTERT fibroblasts, 4 d.p.i. (Table 1 footnote e), read-out: IC50 (converted)): 1.8 µM; parasite growth in plaque assay ([6]; 7.5 μM, 6.5 days, RH Δhxgprt): no parasite growth; IC50 ([6]; Toxoplasma gondii, Fibroblast, 156 h, read-out: IC50 (number of plaques)): 3.1 µM; growth recovery after drug removal ([7]; 1.7 and 2 days of treatment, 7.5 μM): significant reduction of tachyzoite growth; growth recovery after drug removal ([7]; 1.7 and 2 days of treatment, 10 μM): total growth inhibition; growth recovery after drug removal ([7]; 0.7 days of treatment, 5, 7.5 and 10 μM): not effective; parasite growth under continuous treatment ([7]; continuous treatment up to 15 days, 5, 7.5 and 10 μM): complete inhibition of parasite growth; γH2A.X levels when co-administered with CPT (T. gondii γH2A.X; 3 7.5 μM plus CPT 10 μM): reduced them significantly; overall binding constant to ctDNA (ctDNA; ref Vignoni et al., 2014): 16.8 ± 0.5 × 10^3 M^–1 in bp
CCc1nc(N)nc(N)c1-c1ccc(Cl)cc1 [Pyrimethamine, pyrimethamine] | – | – | – | – | – | – | – | – | – | – | – | – | – | – | 0.8 | CC50 (host cells): > 40.2 µM; IC50 (T. gondii RH strain; reported on RH strain, Table 1 footnote c): 3.4 µM
COc1ccc2c(c1)[nH]c1c(C)nccc12 [Compound 1, harmine] | – | – | – | 65 | negligible or null effect | no major impact | – | 49 | <5 | do not inhibit | strongly decreases | inhibited | – | 57 ± 4 | – | IC50 ([4]; 72 h): > 10 µM; IC50 ([4]; 96 h): > 10 µM; effect on invasion process (PV/field) [9]: inhibited; change in % PV with two parasites (% PV (2P)) vs control [10]: sharp increase; overall binding constant to ctDNA (ctDNA; ref Yañuk et al., 2018): 7.7 ± 0.2 × 10^3 M^–1 in bp; CC50 at 2 days [8]: ~60 µM
Nc1ccc(S(=O)(=O)Nc2ncccn2)cc1 [SDZ, sulfadiazine, reference compound] | – | – | – | – | – | – | ~500 | – | – | – | – | – | > 500 | – | 2400 to 2800 | decrease in RFU values with respect to untreated controls ([4]; SDZ 250 and 500 μM, RH RFP in hTERT fibroblasts): ~50%; IC50 (T. gondii RH strain; Table 1 footnote h): 308 µM
